# Assay results reported in patent US10040805B2, “Substituted imidazo[1,5-a]pyrazines as Btk inhibitors” (MERCK SHARP & DOHME CORP., priority 2014, dated 2018).
# Biological target: BTK enzyme (full-length BTK, hBTK) (Homo sapiens (Human), UniProt Q06187)
# Assay: Btk enzyme activity assay, LANCE TR-FRET
# Type: biochemical
# Conditions: 50 pM hBTK, 2 μM biotin-A5-peptide, 25 μM ATP, 60 minute compound & enzyme incubation, read-out: BTK binding IC50
# Experimental: BTK enzymatic activity was determined with the LANCE (Lanthanide Chelate Excite) TR-FRET (Time-resolved fluorescence resonance energy transfer) assay. In this assay, the potency (IC50) of each compound was determined from an eleven point (1:3 serial dilution; final compound concentration range in assay from 1 μM to 0.017 nM) titration curve using the following outlined procedure. To each well of a black non-binding surface Corning 384-well microplate (Corning Catalog #3820), 5 nL of compound (2000 fold dilution in final assay volume of 10 μL) was dispensed, followed by the addition of 7.5 μL of 1× kinase buffer (50 mM Hepes 7.5, 10 mM MgCl2, 0.01% Brij-35, 1 mM EGTA, 0.05% BSA & 1 mM DTT) containing 5.09 pg/μL (66.67 pM) of BTK enzyme (recombinant protein from baculovirus-transfected Sf9 cells: full-length BTK, 6HIS-tag cleaved). Following a 60 minute compound & enzyme incubation, each reaction was initiated by the addition of 2.5 μL 1× kinase buffer containing 8 μM biotinylated “A5” peptide (Biotin-EQEDEPEGDYFEWLE-NH2) (SEQ. ID. NO.: 1), and 100 μM ATP. The final reaction in each well of 10 μL consists of 50 pM hBTK, 2 μM biotin-A5-peptide, and 25 μM ATP. Phosphorylation reactions were allowed to proceed for 120 minutes. Reactions were immediately quenched by the addition of 20 uL of 1× quench buffer (15 mM EDTA, 25 mM Hepes 7.3, and 0.1% Triton X-100) containing detection reagents (0.626 nM of LANCE-Eu-W1024-anti-phosphoTyrosine antibody, PerkinElmer and 86.8 nM of Streptavidin-conjugated Dylight 650, Dyomics/ThermoFisher Scientific). After 60 minutes incubation with detection reagents, reaction plates were read on a PerkinElmer EnVision plate reader using standard TR-FRET protocol. Briefly, excitation of donor molecules (Eu-chelate:anti-phospho-antibody) with a laser light source at 337 nm produces energy that can be transferred to Dylight-650 acceptor molecules if this donor:acceptor pair is within close proximity. Fluorescence intensity at both 665 nm (acceptor) and 615 nm (donor) are measured and a TR-FRET ratio calculated for each well (acceptor intensity/donor intensity). IC50 values were determined by 4 parameter robust fit of TR-FRET ratio values vs. (Log10) compound concentrations.
# Sequence of BTK enzyme (full-length BTK, hBTK) (Q06187 whole entry): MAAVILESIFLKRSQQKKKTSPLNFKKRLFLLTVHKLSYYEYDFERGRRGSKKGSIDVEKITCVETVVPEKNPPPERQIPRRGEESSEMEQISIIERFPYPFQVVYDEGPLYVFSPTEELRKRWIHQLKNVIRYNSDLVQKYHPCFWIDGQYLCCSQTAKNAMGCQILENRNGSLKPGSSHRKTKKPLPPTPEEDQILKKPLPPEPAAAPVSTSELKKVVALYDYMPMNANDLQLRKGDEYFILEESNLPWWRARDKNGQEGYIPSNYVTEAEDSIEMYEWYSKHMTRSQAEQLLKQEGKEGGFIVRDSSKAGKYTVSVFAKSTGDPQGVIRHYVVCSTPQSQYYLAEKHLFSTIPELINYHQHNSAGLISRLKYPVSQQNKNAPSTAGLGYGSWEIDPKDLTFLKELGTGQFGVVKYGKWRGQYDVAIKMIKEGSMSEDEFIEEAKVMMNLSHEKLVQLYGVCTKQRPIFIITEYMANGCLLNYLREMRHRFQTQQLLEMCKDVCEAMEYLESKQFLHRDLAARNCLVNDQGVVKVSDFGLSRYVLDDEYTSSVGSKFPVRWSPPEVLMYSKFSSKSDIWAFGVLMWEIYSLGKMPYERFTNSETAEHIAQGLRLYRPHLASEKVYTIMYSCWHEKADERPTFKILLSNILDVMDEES
row,IC50 [nM],Structure (SMILES)
1,1000,"CCOc1cc(C(=O)Nc2cc(C(F)(F)F)ccn2)ccc1-c1nc(C2(CC)CCC3CCN(CC)C(=O)N3C2)n2ccnc(N)c12 (single isomer, unassigned) [Example 5, 4-[8-amino-3-(2,7-diethyl-1-oxooctahydro-1H-pyrido[1,2-c]pyrimidin-7-yl)imidazo[1,5-a]pyrazin-1-yl]-3-ethoxy-N-[4-(trifluoromethyl)pyridin-2-yl] benzamide]"
2,215,"CCOc1cc(C(=O)Nc2cc(C(F)(F)F)ccn2)ccc1-c1nc(C2(CC)CCC3CCN(CC)C(=O)N3C2)n2ccnc(N)c12 (single isomer, unassigned) [Example 6, 4-[8-amino-3-(2,7-diethyl-1-oxooctahydro-1H-pyrido[1,2-c]pyrimidin-7-yl)imidazo[1,5-a]pyrazin-1-yl]-3-ethoxy-N-[4-(trifluoromethyl)pyridin-2-yl] benzamide]"
3,0.61,"CCOc1cc(C(=O)Nc2cc(C(F)(F)F)ccn2)ccc1-c1nc([C@@]2(C)CC[C@@H]3COC(=O)N3C2)n2ccnc(N)c12 [Example 1, 4-(8-amino-3-((6S,8aR)-6-methyl-3-oxohexahydro-1H-oxazolo[3,4-a]pyridin-6-yl)imidazo[1,5-a]pyrazin-1-yl)-3-ethoxy-N-(4-(trifluoromethyl)pyridin-2-yl)benzamide]"
4,3.07,"CCOc1cc(C(=O)Nc2cc(C(F)(F)F)n(C)n2)ccc1-c1nc([C@@]2(C)CC[C@@H]3COC(=O)N3C2)n2ccnc(N)c12 [Example 2, 4-(8-amino-3-((6S,8aR)-6-methyl-3-oxohexahydro-1H-oxazolo[3,4-a]pyridin-6-yl)imidazo[1,5-a]pyrazin-1-yl)-3-ethoxy-N-(1-methyl-5-(trifluoromethyl)-1H-pyrazol-3-yl)benzamide]"
5,0.61,"CCOc1cc(C(=O)Nc2cc(C(F)(F)F)ccn2)ccc1-c1nc([C@@]2(C)CC[C@@H]3CN(C(C)C)CC(=O)N3C2)n2ccnc(N)c12 [Example 3, 4-(8-amino-3-((7S,9aR)-2-isopropyl-7-methyl-4-oxooctahydro-1H-pyrido[1,2-a]pyrazin-7-yl)imidazo[1,5-a]pyrazin-1-yl)-3-ethoxy-N-(4-(trifluoromethyl)pyridin-2-yl)benzamide bis(2,2,2-trifluoroacetate)]"
6,2.5,"CCOc1cc(C(=O)Nc2cc(C(F)(F)F)n(C)n2)ccc1-c1nc([C@@]2(C)CC[C@@H]3CN(C(C)C)CC(=O)N3C2)n2ccnc(N)c12 [Example 4, 4-(8-amino-3-((7S,9aR)-2-isopropyl-7-methyl-4-oxooctahydro-1H-pyrido[1,2-a]pyrazin-7-yl)imidazo[1,5-a]pyrazin-1-yl)-3-ethoxy-N-(1-methyl-5-(trifluoromethyl)-1H-pyrazol-3-yl)benzamide bis(2,2,2-trifluoroacetate)]"
7,0.59,CCOc1cc(C(=O)Nc2cc(C(F)(F)F)ccn2)ccc1-c1nc([C@]2(C)CC[C@H]3COC(=O)N3C2)n2ccnc(N)c12 [Example 7]
8,0.7,"CCOc1cc(C(=O)Nc2cc(C(F)(F)F)n(C)n2)ccc1-c1nc([C@]2(C)CC[C@H]3COC(=O)N3C2)n2ccnc(N)c12 [Example 8, 4-{8-amino-3-[(6R,8aS)-6-methyl-3-oxohexahydro[1,3]oxazolo[3,4-a]pyridin-6-yl]imidazo[1,5-a]pyrazin-1-yl}-3-ethoxy-N-[1-methyl-5-(trifluoromethyl)-1H-pyrazol-3-yl]benzamide]"
9,0.22,"C[C@@]1(c2nc(-c3ccc(C(=O)Nc4cc(C(F)(F)F)ccn4)cc3F)c3c(N)nccn23)CC[C@H]2COC(=O)N2C1 [Example 9, 4-{8-amino-3-[(6R,8aS)-6-methyl-3-oxohexahydro[1,3]oxazolo[3,4-a]pyridin-6-yl]imidazo[1,5-a]pyrazin-1-yl}-3-fluoro-N-[4-(trifluoromethyl)pyridin-2-yl] benzamide]"
10,0.18,"C[C@@]1(c2nc(-c3ccc(C(=O)Nc4cc(C5CC5)ccn4)cc3F)c3c(N)nccn23)CC[C@H]2COC(=O)N2C1 [Example 10, 4-{8-amino-3-[(6R,8aS)-6-methyl-3-oxohexahydro[1,3]oxazolo[3,4-a]pyridin-6-yl]imidazo[1,5-a]pyrazin-1-yl}-N-(4-cyclopropylpyridin-2-yl)-3-fluorobenzamide]"
11,0.59,"CCOc1cc(C(=O)Nc2cc(C(F)(F)F)ccn2)cc(F)c1-c1nc([C@]2(C)CC[C@H]3COC(=O)N3C2)n2ccnc(N)c12 [Example 11, 4-{8-amino-3-[(6R,8aS)-6-methyl-3-oxohexahydro[1,3]oxazolo[3,4-a]pyridin-6-yl]imidazo[1,5-a]pyrazin-1-yl}-3-ethoxy-5-fluoro-N-[4-(trifluoromethyl)pyridin-2-yl] benzamide]"
12,411,"CCOc1cc(C(=O)Nc2cc(C(F)(F)F)ccn2)ccc1-c1nc(C2(C)CCC3CCN(C)C(=O)N3C2)n2ccnc(N)c12 (stereo not shown) [Example 12, 4-[8-amino-3-(2,7-dimethyl-1-oxooctahydro-1H-pyrido[1,2-c]pyrimidin-7-yl)imidazo[1,5-a]pyrazin-1-yl}-3-ethoxy-N-[4-(trifluoromethyl)pyridin-2-yl] benzamide]"
13,10,"CCOc1cc(C(=O)Nc2cc(C(F)(F)F)ccn2)ccc1-c1nc(C2(C)CCC3CCN(C)C(=O)N3C2)n2ccnc(N)c12 (stereo not shown) [Example 13, 4-[8-amino-3-(2,7-dimethyl-1-oxooctahydro-1H-pyrido[1,2-c]pyrimidin-7-yl)imidazo[1,5-a]pyrazin-1-yl]-3-ethoxy-N-[4-(trifluoromethyl)pyridin-2-yl] benzamide]"
14,0.42,"CCOc1cc(C(=O)Nc2cc(C(F)(F)F)ccn2)ccc1-c1nc([C@]2(C)CC[C@H]3CN(C(C)C)CC(=O)N3C2)n2ccnc(N)c12 [Example 14, 4-{8-amino-3-[(7R,9aS)-7-methyl-2-(1-methylethyl)-4-oxooctahydro-2H-pyrido[1,2-a]pyrazin-7-yl]imidazo[1,5-a]pyrazin-1-yl}-3-ethoxy-N-[4-(trifluoromethyl)pyridin-2-yl] benzamide]"
15,1.27,"CCOc1cc(C(=O)Nc2cc(C(F)(F)F)n(C)n2)ccc1-c1nc([C@]2(C)CC[C@H]3CN(C(C)C)CC(=O)N3C2)n2ccnc(N)c12 [Example 15, 4-{8-amino-3-[(7R,9aS)-7-methyl-2-(1-methylethyl)-4-oxooctahydro-2H-pyrido[1,2-a]pyrazin-7-yl]imidazo[1,5-a]pyrazin-1-yl}-3-ethoxy-N-[1-methyl-5-(trifluoromethyl)-1H-pyrazol-3-yl]benzamide]"
16,3.41,"CCOc1cc(C(=O)Nc2cc(C(F)(F)F)n(C)n2)c(Cl)cc1-c1nc([C@]2(C)CC[C@H]3CN(C(C)C)CC(=O)N3C2)n2ccnc(N)c12 [Example 16, 4-{8-amino-3-[(7R,9aS)-7-methyl-2-(1-methylethyl)-4-oxooctahydro-2H-pyrido[1,2-a]pyrazin-7-yl]imidazo[1,5-a]pyrazin-1-yl}-2-chloro-5-ethoxy-N-[1-methyl-5-(trifluoromethyl)-1H-pyrazol-3-yl] benzamide]"
17,0.18,"C[C@@]1(c2nc(-c3ccc(C(=O)Nc4cc(C(F)(F)F)ccn4)cc3)c3c(N)nccn23)CC[C@H]2CCC(=O)N2C1 [Example 17, 4-(8-amino-3-((6R,8aS)-6-methyl-3-oxooctahydroindolizin-6-yl)imidazo[1,5-a]pyrazin-1-yl)-N-(4-(trifluoromethyl)pyridin-2-yl)benzamide]"
18,0.44,"CCOc1cc(C(=O)Nc2cc(C(F)(F)F)ccn2)ccc1-c1nc([C@]2(C)CC[C@H]3CCC(=O)N3C2)n2ccnc(N)c12 [Example 18, 4-(8-amino-3-((6R,8aS)-6-methyl-3-oxooctahydroindolizin-6-yl)imidazo[1,5-a]pyrazin-1-yl)-3-ethoxy-N-(4-(trifluoromethyl)pyridin-2-yl)benzamide]"
19,0.33,"COc1cc(C(=O)Nc2cc(C(F)(F)F)ccn2)ccc1-c1nc([C@]2(C)CC[C@H]3CCC(=O)N3C2)n2ccnc(N)c12 [Example 19, 4-(8-amino-3-((6R,8aS)-6-methyl-3-oxooctahydroindolizin-6-yl)imidazo[1,5-a]pyrazin-1-yl)-3-methoxy-N-(4-(trifluoromethyl)pyridin-2-yl)benzamide]"
